Measured values taken from US5756301A, “Endogenous taxol-like substance in human serum, monoclonal antibodies directed thereto and methods of assaying therefor” (The Trustees of Columbia University in the City of New York, priority 1993, dated 1998).
“Also recorded” adds a separate entry of the source. Like-named read-outs stand apart in the source and are kept apart here. Each block holds one compound with its values, some of them ahead of it.

Tests used:
KB cells = details: cited from earlier work
29B7B3C = test: Competitive ELISA, inhibition of binding of 29B7B3C to taxol-RSA; design: species or system mouse
Procedure: (§1) Spleen cells were fused with nonsecreting myeloma cells P3 ×63-Ag8.653 (13), according to the method of Sharon et al. (14). […] Clones positive by competitive ELISA were subcloned twice by limiting dilution. Ascites were obtained by injecting 10^6 to 10^7 cells i.p. into BALB/c mice that had been primed with IFA i.p. 5 days before.
(§2) The wells were washed with PBS-T-20 three times and blocked with 200 ul of PBS, containing 1% fetal calf serum, for 1 hour at 37° C. […] After washing four times with PBS-T-20, bound antibodies were detected with 100 ul of 1/3000 dilution of peroxidase-labeled goat anti-mouse IgG+IgM in PBS-T-20 for 1 hour at 37° C. Color was developed and absorbance was measured as described above.

69E4A8E = test: Competitive ELISA, inhibition of binding of 69E4A8E to taxol-RSA; design: species or system mouse
Procedure: as §1, §2

[1] = tested on: rabbit anti-taxol antiserum; test: RIA: inhibition of binding of rabbit anti-taxol antiserum to [3H]taxol; details: for Affinity of rabbit antibodies (in words): [3H]taxol
Procedure: (§3) Bound ligand was separated from free by the addition of 100 ul of a 2.5% dextran-coated charcoal solution in RIA buffer, incubation for 3 min at 4° C. and centrifugation in an Eppendorf centrifuge for 2 min.

tumor = details: cited from earlier work
[2] = tested on: ovarian and breast cancer and melanoma; details: clinical trials; cited from earlier work
microtubules / tubulin = details: cited from earlier work
[3] = tested on: antibodies specific for taxol (one rabbit antiserum and two monoclonal antibodies); test: Binding to all of the antibodies (rabbit antiserum, 69E4A8E, 29B7B3C); design: species or system rabbit; mouse; details: 69E4A8E and 29B7B3C
Procedure: as §2, with “Polystyrene microplates were coated with 100 ul of taxol-RSA (250ng/ml) in 0.1 M sodium bicarbonate, pH=9.3, overnight at 4° C. The” for “The”
as §3

[4] = clinical trials; cited from earlier work
[5] = read-out: Peak taxol level in plasma; 200 to 250 mg/m^2 infusion over 24 hours; cited from earlier work
[6] = relative to taxol = 1, data from reference 10

Structure (SMILES): CC[Si](CC)(CC)O[C@@H](C(=O)O[C@H]1C[C@@]2(O)[C@@H](OC(=O)c3ccccc3)[C@@H]3[C@]4(OC(C)=O)CO[C@@H]4C[C@H](O)[C@@]3(C)C(=O)[C@H](OC(C)=O)C(=C1C)C2(C)C)[C@@H](NC(=O)c1ccccc1)c1ccccc1 [2'-(Triethylsiyl) taxol, 2'-(triethylsilyl)taxol]
Relative IC50, cytotoxicity (KB cells) (KB cells; human): 30,000

Structure (SMILES): CC(=O)O[C@H]1C(=O)[C@]2(C)[C@H](O)C[C@H]3OC[C@@]3(OC(C)=O)[C@H]2[C@H](OC(=O)c2ccccc2)[C@]2(O)C[C@H](OC(=O)[C@H](O)[C@@H](NC(=O)c3ccccc3)c3ccccc3)C(C)=C1C2(C)C [7-Epitaxol, 7-epitaxol]
Binding affinity of 29B7B3C (in words) (29B7B3C; competitive ELISA): higher binding affinities | Binding affinity / recognition by 69E4A8E (in words) (69E4A8E; competitive ELISA): higher binding affinities

Structure (SMILES): CC(=O)O[C@@]12CO[C@@H]1C[C@H](O)[C@@]1(C)C(=O)[C@H](O)C3=C(C)[C@@H](O)C[C@@](O)([C@@H](OC(=O)c4ccccc4)[C@H]21)C3(C)C [10-deacetylbaccatin III]
Relative IC50, cytotoxicity (KB cells) (KB cells; human): 400

Structure (SMILES): CC(=O)OC[C@@]1(O)[C@H]2[C@H](OC(=O)c3ccccc3)[C@]3(O)C[C@H](OC(=O)[C@H](O)[C@@H](NC(=O)c4ccccc4)c4ccccc4)C(C)=C([C@@H](OC(C)=O)C(=O)[C@]2(C)[C@@H](O)C[C@@H]1O)C3(C)C [20-acetoxy-4-deacetyl-5-epi-20,0-secotaxol]
Affinity lower than taxol (orders of magnitude) ([1]; RIA, lower than taxol): about 3 orders of magnitude | Relative IC50, cytotoxicity (KB cells) (KB cells; [6]): > 100,000

Structure (SMILES): CC(=O)O[C@H]1C(=O)[C@@]2(C)[C@H]([C@H](OC(=O)c3ccccc3)[C@]3(O)C[C@H](O)C(C)=C1C3(C)C)[C@]1(OC(C)=O)CO[C@@H]1C[C@@H]2O [Baccatin III, baccatin III]
Affinity lower than taxol (orders of magnitude) [1]: about 3 orders of magnitude | Relative IC50, cytotoxicity (KB cells) (KB cells; human): 1,700

Structure (SMILES): C/C=C(\C)C(=O)N[C@@H](c1ccccc1)[C@@H](O)C(=O)O[C@H]1C[C@@]2(O)[C@@H](OC(=O)c3ccccc3)[C@@H]3[C@]4(OC(C)=O)CO[C@@H]4C[C@H](O)[C@@]3(C)C(=O)[C@H](OC(C)=O)C(=C1C)C2(C)C [Cephalomannine, cephalomannine]
Affinity of rabbit antibodies (in words) ([1]; RIA): almost equal affinity | Binding affinity of 29B7B3C (in words) (29B7B3C; competitive ELISA): higher binding affinities | Relative IC50, cytotoxicity (KB cells) (KB cells; [6]): 3.2

Structure (SMILES): CC(=O)O[C@H]1C(=O)[C@@]2(C)[C@H]([C@H](OC(=O)c3ccccc3)[C@]3(O)C[C@H](OC(=O)[C@H](O)[C@@H](NC(=O)c4ccccc4)c4ccccc4)C(C)=C1C3(C)C)[C@]1(OC(C)=O)CO[C@@H]1C[C@@H]2O [Taxol]
Antitumor activity (tumor): shown to have antitumor activity | Affinity of rabbit antibodies (in words) ([1]; RIA): almost equal affinity | Binding affinity of 29B7B3C (in words) (29B7B3C): higher binding affinities | IC50 (29B7B3C; ELISA, 29B7B3C): ~100 nM | Clinical efficacy [2]: affective in the treatment of ovarian (5, 6) and breast cancer (7) and melanoma (8) | Effect on microtubule assembly / tubulin polymerization (microtubules / tubulin): promote and stabilize microtubule assembly and inhibit disassembly to tubulin | Binding by all antibodies (in words) [3]: bind taxol and active derivatives well | Side effects [4]: neutropenia, hypersensitivity reactions mucositis, neurological and possible cardiac toxicity | Cmax [5]: > 600 nM | Binding affinity / recognition by 69E4A8E (in words) (69E4A8E): higher binding affinities | IC50 (69E4A8E; ELISA, 69E4A8E): ~100 nM

Affinity lower than taxol (fold) ([1]; RIA, lower affinity than taxol): 100 fold | Binding affinity of 29B7B3C (in words) (29B7B3C; competitive ELISA): binds taxotere as well as it does taxol
Structure (SMILES): CC(=O)O[C@@]12CO[C@@H]1C[C@H](O)[C@@]1(C)C(=O)[C@H](O)C3=C(C)[C@@H](OC(=O)[C@H](O)[C@@H](NC(=O)OC(C)(C)C)c4ccccc4)C[C@@](O)([C@@H](OC(=O)c4ccccc4)[C@H]21)C3(C)C [Taxotere]
Affinity of rabbit antibodies (in words) ([1]; RIA): inability of the rabbit serum and 69E4A8E to recognize taxotere | Binding affinity / recognition by 69E4A8E (in words) (69E4A8E; competitive ELISA): recognized poorly; also recorded: inability of the rabbit serum and 69E4A8E to recognize taxotere

Structure (SMILES): COc1cc([C@@H]2c3cc4c(cc3[C@H](O)[C@H]3COC(=O)[C@H]23)OCO4)cc(OC)c1OC [podophyllotoxin]
Effect on microtubule assembly / tubulin polymerization (microtubules / tubulin): inhibit tubulin polymerization

Structure (SMILES): CC[C@]1(O)C[C@@H]2CN(CCc3c([nH]c4ccccc34)[C@@](C(=O)OC)(c3cc4c(cc3OC)N(C)[C@H]3[C@@](O)(C(=O)OC)[C@H](OC(C)=O)[C@]5(CC)C=CCN6CC[C@]43[C@@H]65)C2)C1 [vinblastine]
Effect on microtubule assembly / tubulin polymerization (microtubules / tubulin): inhibit tubulin polymerization
